Source: PubChem BioAssay AID1259407 (Chemical Carcinogenesis Research Information System (CCRIS), 2018)
The source made the active and inactive calls. No rule for the calls is given here.

System: CCRIS mutagenicity, Ames/micronucleus/aberration tests
Assay: CCRIS mutagenicity studies
Settings: Test System: AMES SALMONELLA TYPHIMURIUM

## Nc1ccc(-c2ccccc2)cc1
Strain/Indicator: DJ400, Metabolic Activation: TOBACCO TX1 CELLS, Method: PREINCUBATION
  mutagenic call: inactive; negative
Strain/Indicator: DJ460, Metabolic Activation: TOBACCO TX1 CELLS, Method: PREINCUBATION
  mutagenic call: active; positive
Strain/Indicator: MP110, Metabolic Activation: TOBACCO TX1 CELLS, Method: PREINCUBATION
  mutagenic call: inactive; negative
Strain/Indicator: MP120, Metabolic Activation: TOBACCO TX1 CELLS, Method: PREINCUBATION
  mutagenic call: inactive; negative
Strain/Indicator: MP208, Metabolic Activation: TOBACCO CELL-FREE TXIMX, Method: PREINCUBATION
  mutagenic call: active; positive
Strain/Indicator: MP219, Metabolic Activation: TOBACCO CELL-FREE TXIMX, Method: PREINCUBATION
  mutagenic call: active; positive
Strain/Indicator: TA97, Metabolic Activation: NONE, Method: STANDARD PLATE
  mutagenic call: inactive; negative
Strain/Indicator: TA97, Metabolic Activation: RAT, LIVER, S-9, AROCLOR 1254, Method: STANDARD PLATE
  mutagenic call: active; positive
Strain/Indicator: TA98(1,8-DNP6), Metabolic Activation: PLANT CELLS, Method: PREINCUBATION
  mutagenic call: active; positive
Strain/Indicator: TA98(1,8-DNP6), Metabolic Activation: TOBACCO CELL-FREE TXIMX, Method: PREINCUBATION
  mutagenic call: inactive; negative
Strain/Indicator: TA98(NR), Metabolic Activation: TOBACCO CELL-FREE TXIMX, Method: PREINCUBATION
  mutagenic call: active; positive
Strain/Indicator: TA98, Metabolic Activation: HUMAN, RED BLOOD CELL, CYTOSOL, Method: PREINCUBATION
  mutagenic call: active; positive
Strain/Indicator: TA98, Metabolic Activation: HUMAN, UROEPITHELIAL CELL CYTOSOL, Method: PREINCUBATION
  mutagenic call: inactive; negative
Strain/Indicator: TA98, Metabolic Activation: HUMAN, UROEPITHELIAL CELL, MICROSOMES, Method: PREINCUBATION
  mutagenic call: inactive; negative
Strain/Indicator: TA98, Metabolic Activation: HUMAN, UROEPITHELIAL CELL, S-9, Method: PREINCUBATION
  mutagenic call: inactive; negative
Strain/Indicator: TA98, Metabolic Activation: NONE, Method: PREINCUBATION
  mutagenic call: inactive; negative
Strain/Indicator: TA98, Metabolic Activation: PLANT CELLS, Method: PREINCUBATION
  mutagenic call: active; positive
Strain/Indicator: TA98, Metabolic Activation: RAT LIVER S-9, AROCLOR 1254, Method: PREINCUBATION
  mutagenic call: active; positive
Strain/Indicator: TA98, Metabolic Activation: RAT LIVER S-9, AROCLOR, Method: STANDARD PLATE
  mutagenic call: active; positive
Strain/Indicator: TA98, Metabolic Activation: RAT, BLADDER, S-9, PCB, Method: FLUCTUATION TEST
  mutagenic call: active; positive
Strain/Indicator: TA98, Metabolic Activation: RAT, LIVER, S-9, AROCLOR 1254 (4%), Method: STANDARD PLATE
  mutagenic call: active; positive
Strain/Indicator: TA98, Metabolic Activation: RAT, LIVER, S-9, KC500 OR PHENOBARBITAL, Method: LIQUID SUSPENSION
  mutagenic call: active; positive
Strain/Indicator: TA98, Metabolic Activation: TOBACCO CELL-FREE TXIMX, Method: PREINCUBATION
  mutagenic call: active; positive
Strain/Indicator: TA100 (1,8-DNP), Metabolic Activation: MOUSE LIVER S-9, AROCLOR 1254, 10%, Method: PREINCUBATION
  mutagenic call: active; positive
Strain/Indicator: TA100 (1,8-DNP), Metabolic Activation: RAT LIVER S-9, AROCLOR 1254, 10%, Method: PREINCUBATION
  mutagenic call: active; positive
Strain/Indicator: TA100(NR), Metabolic Activation: TOBACCO CELL-FREE TXIMX, Method: PREINCUBATION
  mutagenic call: active; positive
Strain/Indicator: TA100(TN:OAT), Metabolic Activation: TOBACCO CELL-FREE TXIMX, Method: PREINCUBATION
  mutagenic call: active; positive
Strain/Indicator: TA100, Metabolic Activation: MOUSE LIVER S-9, AROCLOR 1254, 10%, Method: PREINCUBATION
  mutagenic call: active; positive
Strain/Indicator: TA100, Metabolic Activation: NONE, Method: PREINCUBATION
  mutagenic call: inactive; negative
Strain/Indicator: TA100, Metabolic Activation: RAT LIVER S-9, AROCLOR 1254, 10%, Method: PREINCUBATION
  mutagenic call: active; positive
Strain/Indicator: TA100, Metabolic Activation: RAT LIVER S-9, AROCLOR 1254, Method: PREINCUBATION
  mutagenic call: active; positive
Strain/Indicator: TA100, Metabolic Activation: RAT LIVER S-9, AROCLOR, Method: STANDARD PLATE
  mutagenic call: active; positive
Strain/Indicator: TA100, Metabolic Activation: RAT, BLADDER, S-9, PCB, Method: FLUCTUATION TEST
  mutagenic call: inactive; negative
Strain/Indicator: TA100, Metabolic Activation: RAT, LIVER, S-9, KC500 OR PHENOBARBITAL, Method: LIQUID SUSPENSION
  mutagenic call: active; positive
